The values that follow come from patent US20260355184A1, “SMALL MOLECULE DEGRADERS OF HIV-1 TAT PROTEIN” (priority 2022, published 2026).

Entries after “also recorded” stand apart in the source; their conditions may differ. Like-named read-outs stand apart in the source and are kept apart here.

The test system of one assay is ACH-2 cells. Description: Cell-associated HIV Gag mRNA expression / HIV transcription in latently infected ACH-2 cells. In kind it is cell-based. Conditions: ACH2; 96-day period with ARVs; n=1. On the procedure: (§1) Next, the activity of these leads against HIV infection was evaluated using the reporter cell line HeLa-CD4-LTR-LacZ, which stably expresses the β-galactosidase (β-Gal) gene under the control of the HIV 5′ LTR. The HIV NL4.3 strain was used for these studies and β-Gal activity was measured 72 hrs post infection (FIG. 3A). Cytotoxicity assays using Cell-Titer-Glo were performed in parallel to assess cell viability (FIG. 3A). […] Their anti-HIV activity was further assessed in acute replication of Jurkat T cells with the NL4.3 strain (FIG. 3A). […] These OM10.1 cells contain a single integrated wild-type provirus, while ACH-2 cells contain a single integrated provirus with a TAR mutation C37T, defective Tat-TAR feedback loop (FIG. 3B).

A further assay concerns HIV NL4.3 strain. Nature of the assay: HIV infectivity assay, reporter cell line HeLa-CD4-LTR-LacZ, β-Gal activity (Tat protein inhibition). In kind it is cell-based, HIV-1 (NL4.3). Summed up:
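HeLa-CD4-LTR-LacZ reporter cells (β-Gal under HIV 5′ LTR) infected with HIV NL4.3; β-Gal activity read 72 h post infection, with parallel Cell-Titer-Glo viability. OM10.1 carry a single wild-type provirus; ACH-2 a single provirus with TAR C37T mutation, defective Tat-TAR feedback.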

The next assay concerns Tat lysine mutants. The following applies: TT-44881 60 μM; for Tat degradation, K28R, K29R and K41R: TT-44856 and TT-44863 40 μM; for Tat degradation, K28R, K29R and K41R / Tat degradation, single or combined lysine mutations: n=1; for Tat degradation, single or combined lysine mutations / Tat degradation, additional lysine mutations to K28R, K29R and K41R: TT-44856 40 μM; for Tat degradation, additional lysine mutations to K28R, K29R and K41R: n=2. The source says: Tat 86 a.a. has 9 lysine residues (FIG. 8D) that could be engaged by lysine 48-linked ubiquitin chains or nonconventional ubiquitin chains, i.e., non-Lys-48 or non-Lys-63, to be degraded through the 26S proteasomal pathway^3738. […] Tat lysine residues required for leads' degradation engagement can be determined.
In addition to K28-29-K41R, other Tat's lysine residues were mutated and degradation assays performed in the presence of TT-44881 or TT-44856.

Assay [1] concerns OM10.1 cells. Description: SAHA mediated reactivation from latency in OM10.1 cells. In kind it is cell-based, HIV. The following applies: day 12 and day 32, vs DMSO+ARVs.
Assay [2] has as its system TAR-SIIB promoter (Flag-Tat-Rev fusion protein). Nature of the assay: Flag-Tat-Rev fusion protein transactivation of TAR-SIIB promoter. The class given is cell-based, HIV-1. The following applies: SIIB reporter HEK293T. As for the experimental part:
FIG. 4. […] Shown is n=1. […] Shown is n=1. ARVs: antiretrovirals: 100 nM Efavirenz, 200 nM Lamivudine and 200 nM Raltegravir. C. […] SIIB: a reporter HEK293T stable cell line where the essential apical region of TAR was replaced by the 29-nucleotide stem-loop IIB (SIIB) subdomain of the HIV-1 RRE. A Tat-Rev fusion protein activates transcription of luciferase when Rev binds SIIB, bringing Tat and P-TEFb to RNAPII at the HIV promoter. Shown is mean±SEM of n=4.

For a further assay, the target named is T1, Flag-Tat (Human immunodeficiency virus type 1 (HXB3 ISOLATE), UniProt P69698).
T1 construct: Tat 86 aa likely (9 lysines)
T1 sequence (P69698 whole entry): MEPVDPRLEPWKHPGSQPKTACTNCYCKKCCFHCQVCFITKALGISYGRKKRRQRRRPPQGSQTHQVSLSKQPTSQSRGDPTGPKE
Description: Degradation assay: Flag-Tat in HEK293T cells, western blot. The class given is cell-based, HIV. The following applies: for effect of chloroquine or NH4Cl on compound induced Flag-Tat degradation: Chloroquine 100 μM or NH4Cl 50 mM, 8 hrs; for Flag-Tat degradation / steady state: western blot; for effect of Lenalidomide on compound induced Flag-Tat degradation: Lenalidomide 40 μM, 4 hrs; for effect of MG132 on compound induced Flag-Tat degradation: MG132 20 μM, 17 hrs. As for the experimental part:
Next, the effect of the three leads on the alteration of Tat steady state levels was assessed. Tat expression from an integrated provirus, or from HIV acute infection is generally too low to be detected by western blot. Furthermore, antibodies against Tat are known for their lack of avidity. Tat degradation was thus assessed upon transfection. Flag-Tat or Flag-GFP were individually transfected into HEK293T and 24 hrs later, TT-44856, TT-44863 or TT-44881 were added to the culture, followed by Western blot 24 hrs later (dubbed “degradation assay”) (FIG. 5A). […] These cells were treated with TNFα (previously determined not be degraded by the three leads in FIG. 2D) in the presence of TT-44856, TT-44863 or TT-44881, followed by western blot with an anti-Flag antibody 17 hrs later. […] Finally, the leads' impact on recombinant Tat protein in HEK293T cells was assessed (FIG. 5D). HEK293T cells were incubated with recombinant Tat for 4 hrs to allow Tat internalization, followed by several thorough washes to remove unincorporated Tat. Cells were then incubated with all three leads (or Triptolide) for an additional 2 hrs. Cells were lysed and analyzed by western blot with an anti-Tat serum.
Degradation of Tat has been reported in the literature in multiple ways, including the lysosomal pathway^23, the ubiquitin-independent 20S proteasomal pathway (due to its unfolded structure)^24,25, and the ubiquitin-dependent 26S proteasomal pathway^26. It was first assessed whether Tat was targeted to the lysosomal pathway by the lead compounds. HEK293T cells were transfected with Flag-Tat for 24 hrs, incubated with the compounds for an additional 24 hrs, then treated for 8 hrs with either 100 μM chloroquine or 50 mM NH4Cl, both known to inhibit lysosomal hydrolases by reducing acidification. […] Both the 20S and the 26S proteasomal pathways were next investigated using MG132, an inhibitor of the catalytic […] of 20S present in both pathways^27. The degradation assay was carried out as above, but compounds were simultaneously incubated with MG132 20 μM or DMSO for 17 hrs followed by western blot. In the presence of MG132, Tat degradation was rescued, but the rescue was higher in the presence of the lead compounds (FIG. 6B).
Protein ubiquitination occurs by sequential recruitment of ubiquitin-activating enzyme E1, ubiquitin-conjugating enzyme E2, and ubiquitin ligase E3 (using ubiquitin, substrate protein, and ATP). The selectivity in protein ubiquitination is conferred by E3 ubiquitin ligases that recognize the substrate proteins^29 and the human genome contains more than 600 E3 ubiquitin ligases^29. To determine whether the small molecule leads trigger the 20S or the 26S proteasomal pathways, the Tat degradation assay was performed in the presence of commercially available E3 ligase inhibitors, including Lenalidomide a E3 ubiquitin ligase Cereblon inhibitor. Cereblon has not been previously reported to ubiquitinate Tat. The degradation assays were performed as above with Lenalidomide (40 μM) or DMSO incubation for 4 hrs in the presence of the lead molecules (FIG. 7A). […] To confirm the engagement of Cereblon in the mechanism of action of the lead compounds, shRNAs were used to stably knock down Cerebelon, or CD8 control, in HEK293T cells, and the degradation assay for TT-44856 was performed.
The involvement of the ubiquitous VHL E3 ligase in the activity of TT-44881 inducing Tat degradation was also investigated. HEK293T cells overexpressing Tat protein and VHL siRNAs (or si control) were treated with either TT-44881 (60 μM) and DMSO or TT-44881 with a VHL PROTAC (CM11, 500 nM) for 24 hours. siRNAs and PROTACs were used together to maximize the depletion of both VHL isoforms (30 and 19 kDa).
Background: Immunoblotting shows a protein as a band on a membrane.

Assay [3] concerns OM10.1 cells. Description: Cell-associated HIV Gag mRNA expression / HIV transcription in latently infected OM10.1 cells. In kind it is cell-based. The following applies: 96-day period with ARVs, n=1. On the procedure: as §1
Where [4] appears, read: Human immunodeficiency virus 1, 72 h, read-out: IC50 against HIV infection, HeLa-CD4-LTR-LacZ, HIV NL4.3, β-Gal 72 hrs post infection.

As usually defined, the IC50 is the concentration that inhibits the measured activity by half. With `COCCOc1ccc(C(F)(F)F)cc1NC(=O)Cn1cc(C(F)(F)F)cc(Cl)c1=O` [TT-44863], the “HIV transcription (in words)” value in the assay with ACH-2 cells and in the assay on OM10.1 cells [3] was “inhibit HIV transcription” throughout. In addition, the IC50 in the assay with HIV NL4.3 strain (setting [4]) is 6 ± 1.3 µM; in the assay with HIV NL4.3 strain (Human immunodeficiency virus 1, read-out: Infectivity IC50, HeLa-CD4-LTR-LacZ, analogs of TT-44863 (Table 2)) it was 1 to 10 µM. For the same compound, the “Tat degradation, K28R, K29R and K41R” value in the assay on Tat lysine mutants was “do not prevent lead hits induced Tat degradation”. The “SAHA mediated reactivation from latency” value with OM10.1 cells [1] is on record as “potently blocked SAHA mediated reactivation from latency”. Further, the “Flag-Tat-Rev transactivation of TAR-SIIB” value in assay [2] was “inhibit Tat-Rev fusion protein transactivation”. In addition, the “effect of chloroquine or NH4Cl on compound induced Flag-Tat degradation” value (shortened to “effect of chloroquine or NH4Cl”) on Flag-Tat (n=1) is reported as “do not prevent lead hits induced Flag-Tat degradation”. Besides, at Flag-Tat (HEK293T), the “Flag-Tat degradation / steady state” value is reported as “Tat protein degradation was observed”. Further, the “effect of Lenalidomide on compound induced Flag-Tat degradation” value (from here on “effect of Lenalidomide”) at Flag-Tat is on record as “prevents Tat compounds induced Flag-Tat degradation”. In addition, the “effect of MG132 on compound induced Flag-Tat degradation” value (“effect of MG132” for short) on Flag-Tat is “prevents lead hits induced Flag-Tat degradation”.
As to `O=C(CCCCN1CCCC1=O)c1nn(-c2ccccc2)c2c1CCC2` [TT-44881], the “HIV transcription (in words)” value with ACH-2 cells is listed as “inhibit HIV transcription”. Moreover, the IC50 in the assay on HIV NL4.3 strain (setting [4]) came out at 19.7 ± 4.5 µM. The IC50 with HIV NL4.3 strain (Human immunodeficiency virus 1, read-out: Infectivity IC50, HeLa-CD4-LTR-LacZ, analogs of TT-44881 (Table 1)) was in the range of 1 to 20 µM. For the same compound, in the assay on Tat lysine mutants, the “Tat degradation, single or combined lysine mutations” value was “all the mutants were similarly degraded to the control”; the “Tat degradation, additional lysine mutations to K28R, K29R and K41R” value is “mutation of the K19 or K71 to arginine reduced TT-44881 induced Tat degradation”; the “Tat degradation, K28R, K29R and K41R” value is recorded as “do not prevent lead hits induced Tat degradation”. Besides, the “SAHA mediated reactivation from latency” value with OM10.1 cells [1] is reported as “potently blocked SAHA mediated reactivation from latency”. Moreover, the “Flag-Tat-Rev transactivation of TAR-SIIB” value in assay [2] is “inhibit Tat-Rev fusion protein transactivation”. Besides, on Flag-Tat (n=1), the “effect of chloroquine or NH4Cl” value is recorded as “do not prevent lead hits induced Flag-Tat degradation”. Also, the “Flag-Tat degradation / steady state” value at Flag-Tat (HEK293T) is listed as “Tat protein degradation was observed”. On Flag-Tat, the “effect of Lenalidomide” value is reported as “prevents Tat compounds induced Flag-Tat degradation” and the “effect of MG132” value is on record as “prevents lead hits induced Flag-Tat degradation”. Further, on Flag-Tat (VHL siRNA and VHL PROTAC CM11 500 nM, 24 hours, TT-44881 60 μM), the “Tat degradation upon VHL depletion” value is on record as “no longer depleted”. For the same compound, the “HIV transcription (in words)” value with OM10.1 cells [3] was “inhibit HIV transcription”.
Consider `CC(C(=O)NCCCn1ccnc1)(c1ccccc1)c1ccccc1` [TT-44856], for which the IC50 in the assay with HIV NL4.3 strain (setting [4]) came to 20.5 ± 9.5 µM. In addition, the IC50 in the assay on HIV NL4.3 strain (Human immunodeficiency virus 1, read-out: Infectivity IC50, HeLa-CD4-LTR-LacZ, analogs of TT-44856 (Table 3)) was 1 to 20 µM. In the assay on Tat lysine mutants, the “Tat degradation, single or combined lysine mutations” value is on record as “all the mutants were similarly degraded to the control”; the “Tat degradation, additional lysine mutations to K28R, K29R and K41R” value is given as “required either K50/51, K71 or K85”; the “Tat degradation, K28R, K29R and K41R” value was “do not prevent lead hits induced Tat degradation”. Moreover, the “effect of chloroquine or NH4Cl” value at Flag-Tat (n=1) is “do not prevent lead hits induced Flag-Tat degradation”. The “Flag-Tat degradation / steady state” value at Flag-Tat (HEK293T) was “Tat protein degradation was observed”. Moreover, on Flag-Tat, the “effect of Lenalidomide” value is given as “prevents Tat compounds induced Flag-Tat degradation” and the “effect of MG132” value is “prevents lead hits induced Flag-Tat degradation”. Besides, the “Flag-Tat degradation upon Cereblon knockdown” value at Flag-Tat (shRNA Cereblon, HEK293T, TT-44856 40 μM, n=1) is reported as “no longer engaging Flag-Tat for degradation; also recorded: diminishes TT-44856 induced Flag-Tat degradation”.
